Laboratory results: US12655106B2 (Eikonizo Therapeutics, Inc., priority 2021, dated 2026)

Legend:
[1] = biological target: T1, Full length Human HDAC6 (Homo sapiens, UniProt Q9UBN7); assay: Caliper endpoint assay for HDAC enzymatic activity (HDAC6); format: biochemical; settings: for IC50: in vitro enzymatic, Caliper endpoint assay, 30 min pre-incubation, 1 μM substrate peptide; for Selectivity (6 v 8): ratio of HDAC8 IC50/HDAC6 IC50
T1 construct: Full length Human HDAC6; FLAG (C); host or cells: baculovirus expression system
T1 sequence (Q9UBN7 1-1215): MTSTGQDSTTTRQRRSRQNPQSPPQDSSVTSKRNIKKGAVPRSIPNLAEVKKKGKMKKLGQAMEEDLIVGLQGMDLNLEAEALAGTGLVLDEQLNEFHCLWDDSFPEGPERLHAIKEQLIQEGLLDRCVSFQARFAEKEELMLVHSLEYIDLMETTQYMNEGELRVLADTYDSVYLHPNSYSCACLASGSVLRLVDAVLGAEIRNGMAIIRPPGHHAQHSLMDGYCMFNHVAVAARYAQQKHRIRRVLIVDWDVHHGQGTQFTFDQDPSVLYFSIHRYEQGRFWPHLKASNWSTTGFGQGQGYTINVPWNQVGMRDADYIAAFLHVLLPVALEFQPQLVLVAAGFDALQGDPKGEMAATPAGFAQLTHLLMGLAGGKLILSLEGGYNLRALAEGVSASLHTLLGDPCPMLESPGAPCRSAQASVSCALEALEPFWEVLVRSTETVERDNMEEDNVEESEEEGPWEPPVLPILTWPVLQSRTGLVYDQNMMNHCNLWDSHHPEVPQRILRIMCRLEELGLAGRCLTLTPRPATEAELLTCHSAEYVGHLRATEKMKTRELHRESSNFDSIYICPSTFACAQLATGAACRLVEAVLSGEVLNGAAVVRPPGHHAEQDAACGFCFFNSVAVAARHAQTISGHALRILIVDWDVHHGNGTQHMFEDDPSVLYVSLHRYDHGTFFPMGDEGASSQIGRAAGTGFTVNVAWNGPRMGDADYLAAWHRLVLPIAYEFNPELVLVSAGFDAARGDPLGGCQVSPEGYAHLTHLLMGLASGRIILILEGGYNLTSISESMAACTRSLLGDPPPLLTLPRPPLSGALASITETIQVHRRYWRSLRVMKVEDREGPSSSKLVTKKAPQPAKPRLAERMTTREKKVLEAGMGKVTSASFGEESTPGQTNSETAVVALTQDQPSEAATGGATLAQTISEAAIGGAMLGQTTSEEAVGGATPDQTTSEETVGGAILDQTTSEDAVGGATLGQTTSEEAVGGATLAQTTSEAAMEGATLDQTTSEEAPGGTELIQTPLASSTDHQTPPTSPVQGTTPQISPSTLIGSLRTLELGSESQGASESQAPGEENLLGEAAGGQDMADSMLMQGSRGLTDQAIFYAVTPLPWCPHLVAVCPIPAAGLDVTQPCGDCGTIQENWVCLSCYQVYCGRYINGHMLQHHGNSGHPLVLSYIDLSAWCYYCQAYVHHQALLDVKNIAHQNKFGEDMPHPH

[2] = biological target: T2, Full length Human HDAC8 (Homo sapiens, UniProt Q9BY41); assay: Caliper endpoint assay for HDAC enzymatic activity (HDAC8); format: biochemical; settings: in vitro enzymatic, 30 min pre-incubation, 1 μM substrate peptide
T2 construct: Full length Human HDAC8; HIS (N); host or cells: baculovirus expression system
T2 sequence (Q9BY41 1-377): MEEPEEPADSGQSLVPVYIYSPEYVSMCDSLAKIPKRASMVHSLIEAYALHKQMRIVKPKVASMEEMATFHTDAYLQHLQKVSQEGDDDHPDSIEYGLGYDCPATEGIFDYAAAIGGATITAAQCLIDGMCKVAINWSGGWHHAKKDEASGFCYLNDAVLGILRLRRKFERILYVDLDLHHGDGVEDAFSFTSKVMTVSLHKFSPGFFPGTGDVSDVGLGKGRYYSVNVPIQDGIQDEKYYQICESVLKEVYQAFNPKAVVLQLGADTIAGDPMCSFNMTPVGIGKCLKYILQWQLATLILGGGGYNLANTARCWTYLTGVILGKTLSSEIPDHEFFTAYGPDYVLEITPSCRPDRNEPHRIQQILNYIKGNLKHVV

| IC50 [1] [µM] | Selectivity (6 v 8) [1] | IC50 [2] [µM] | Structure (SMILES) |
| --- | --- | --- | --- |
| > 100 | V (V: >1000) | 10 to 100 | O=C(NO)c1ccc2c(c1F)CCN(C1CC3(CCCCC3)C1)C2 [Compound 506, 5-fluoro-N-hydroxy-2-(spiro[3.5]nonan-2-yl)-1,2,3,4-tetrahydroisoquinoline-6-carboxamide] |
| 0.001 to 0.1 | IV (IV: >100-1000) | 10 to 100 | O=C(NO)c1cc(F)c2c(c1)CCN(C1CC3(CCN(C4CC4)CC3)C1)C2 [Compound 607, 2-(7-cyclopropyl-7-azaspiro[3.5]nonan-2-yl)-8-fluoro-3,4-dihydro-1H-isoquinoline-6-carbohydroxamic acid] |
